How the values were obtained:
P2X purinoceptor 7 [1] = target: T1, P2X purinoceptor 7 (Homo sapiens, UniProt Q99572); experiment: Antagonist activity at P2X7 receptor in human THP1 cells assessed as inhibition of BzATP-induced YO-PRO-1 Iodide uptake measured every 30 secs for 1 hr by fluorescence assay; format: cell-based
T1 sequence (Q99572 whole entry): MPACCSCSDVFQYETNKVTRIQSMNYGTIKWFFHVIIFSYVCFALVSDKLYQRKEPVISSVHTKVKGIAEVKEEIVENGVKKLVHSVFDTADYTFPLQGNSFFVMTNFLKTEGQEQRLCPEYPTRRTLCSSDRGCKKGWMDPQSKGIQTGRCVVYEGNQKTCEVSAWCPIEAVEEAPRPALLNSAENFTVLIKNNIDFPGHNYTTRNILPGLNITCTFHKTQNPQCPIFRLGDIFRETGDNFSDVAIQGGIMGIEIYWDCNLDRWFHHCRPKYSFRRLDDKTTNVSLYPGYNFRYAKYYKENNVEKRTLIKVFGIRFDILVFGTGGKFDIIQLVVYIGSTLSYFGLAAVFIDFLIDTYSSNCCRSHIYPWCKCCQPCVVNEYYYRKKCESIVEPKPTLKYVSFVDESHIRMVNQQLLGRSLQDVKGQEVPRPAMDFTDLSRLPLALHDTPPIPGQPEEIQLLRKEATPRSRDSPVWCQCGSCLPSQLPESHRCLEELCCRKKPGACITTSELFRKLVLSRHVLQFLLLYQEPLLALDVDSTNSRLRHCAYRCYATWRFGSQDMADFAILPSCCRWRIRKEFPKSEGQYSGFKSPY

P2X purinoceptor 7 [2] = target: T1, P2X purinoceptor 7; experiment: Antagonist activity at P2X7 receptor in LPS-stimulated human THP1 cells assessed as inhibition of LPS/BzATP-induced IL-1beta release preincubated for 30 mins followed by BzATP addition measured after 30 mins by ELISA
[3] = target: T2, P2X purinoceptor 7 (Homo sapiens) (UniProt Q99572); experiment: Ratio of IC50 for P2X7 receptor in human THP1 cells assessed as inhibition of BzATP-induced YO-PRO-1 Iodide uptake to IC50 for P2X7 receptor in LPS-stimulated human THP1 cells assessed as inhibition of LPS/BzATP-induced IL-1beta release; format: cell-based
T2 sequence (whole entry): T1 sequence (Q99572 whole entry)

P2X purinoceptor 7 [4] = target: T3, P2X purinoceptor 7 (Rattus norvegicus, UniProt Q64663); experiment: Antagonist activity at rat P2X7 receptor expressed in 1321N1 cells assessed as inhibition of agonist-induced calcium flux pretreated for 3 mins followed by BzATP addition after 3 mins measured every 1 sec for 60 secs and at 5 secs interval throughout testing by Flou-4-AM dye based FLIPR assay; format: cell-based
T3 sequence (Q64663 whole entry): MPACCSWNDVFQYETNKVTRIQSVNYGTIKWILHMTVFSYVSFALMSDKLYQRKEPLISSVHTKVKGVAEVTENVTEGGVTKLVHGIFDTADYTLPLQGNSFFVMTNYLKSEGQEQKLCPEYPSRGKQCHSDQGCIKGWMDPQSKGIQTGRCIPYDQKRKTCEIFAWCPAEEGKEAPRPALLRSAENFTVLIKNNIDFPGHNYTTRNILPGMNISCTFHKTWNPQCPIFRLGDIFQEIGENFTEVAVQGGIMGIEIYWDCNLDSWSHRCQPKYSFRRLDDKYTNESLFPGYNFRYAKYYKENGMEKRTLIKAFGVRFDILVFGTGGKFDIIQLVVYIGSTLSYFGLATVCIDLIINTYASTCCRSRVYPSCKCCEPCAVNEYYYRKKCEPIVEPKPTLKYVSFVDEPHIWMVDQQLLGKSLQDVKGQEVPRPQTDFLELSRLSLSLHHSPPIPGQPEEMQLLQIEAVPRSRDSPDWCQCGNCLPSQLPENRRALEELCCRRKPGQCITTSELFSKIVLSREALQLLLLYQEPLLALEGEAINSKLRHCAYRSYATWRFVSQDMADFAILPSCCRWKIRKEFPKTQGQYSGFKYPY

Structure (SMILES)	IC50 (P2X purinoceptor 7 [1]) [µM]	IC50 (P2X purinoceptor 7 [2]) [µM]	Ratio IC50 [3]	IC50 (P2X purinoceptor 7 [4]) [µM]
N#C/N=C(\NCCC12CC3CC(CC(C3)C1)C2)Nc1ccccc1	> 10	–	–	–
N#C/N=C(/NCc1ccccc1)NC12CC3CC(CC(C3)C1)C2	> 10	–	–	–
N#C/N=C(\NCCC12CC3CC(CC(C3)C1)C2)NCc1ccccc1	3.02	–	–	–
N#C/N=C(\NCC12CC3CC(CC(C3)C1)C2)Nc1ccncc1	0.417	–	–	–
C[C@H](N/C(=N/C#N)Nc1cccc2ncccc12)c1ccccc1	–	–	–	0.009 to 0.011
COc1ccccc1CN/C(=N/C#N)NCC12CC3CC(CC(C3)C1)C2	0.562	–	–	–
N#C/N=C(/Nc1ccccc1)NC12CC3CC(CC(C3)C1)C2	2.46	–	–	–

Now from value to compound:

IC50 (P2X purinoceptor 7 [1]) [µM]	IC50 (P2X purinoceptor 7 [2]) [µM]	Ratio IC50 [3]	IC50 (P2X purinoceptor 7 [4]) [µM]	Structure (SMILES)
0.407	0.079	5.2	–	N#C/N=C(/NCc1ccccc1)NCC12CC3CC(CC(C3)C1)C2
0.051	–	–	–	COc1ccccc1N/C(=N/C#N)NCC12CC3CC(CC(C3)C1)C2
0.058	–	–	–	COc1cccc(N/C(=N/C#N)NCC23CC4CC(CC(C4)C2)C3)c1
0.018	0.002	9	–	N#C/N=C(\NCC12CC3CC(CC(C3)C1)C2)Nc1cccc2ncccc12
0.234	0.138	1.7	–	N#C/N=C(/NCc1ccccn1)NCC12CC3CC(CC(C3)C1)C2
0.174	–	–	–	N#C/N=C(\NCC12CC3CC(CC(C3)C1)C2)Nc1ccc(F)cc1
0.1	–	–	–	N#C/N=C(\NCC12CC3CC(CC(C3)C1)C2)Nc1ccccc1

Reference: ChEMBL document CHEMBL4011591, “Discovery and pharmacological evaluation of a novel series of adamantyl cyanoguanidines as P2X7 receptor antagonists” (Eur J Med Chem, 2017)
